Columns and labels:
[1] = biological target: Mu-type opioid receptor (Rattus norvegicus) (UniProt P33535)
[2] = biological target: Substance-P receptor (Cavia porcellus) (UniProt P30547); conditions: Hartley, Ileum
Sequence of Substance-P receptor (Cavia porcellus) (P30547 whole entry): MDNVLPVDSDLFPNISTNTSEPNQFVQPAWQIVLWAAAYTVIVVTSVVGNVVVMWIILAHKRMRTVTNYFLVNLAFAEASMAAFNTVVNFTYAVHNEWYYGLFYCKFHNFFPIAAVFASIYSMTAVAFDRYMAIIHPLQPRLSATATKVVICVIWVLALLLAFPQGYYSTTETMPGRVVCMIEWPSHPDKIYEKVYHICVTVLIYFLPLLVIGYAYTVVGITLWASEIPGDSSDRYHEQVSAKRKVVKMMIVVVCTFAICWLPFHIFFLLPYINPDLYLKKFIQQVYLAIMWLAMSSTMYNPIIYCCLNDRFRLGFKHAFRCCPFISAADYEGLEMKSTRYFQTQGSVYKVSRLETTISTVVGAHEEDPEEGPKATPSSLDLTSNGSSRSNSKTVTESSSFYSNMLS

Sequence of Mu-type opioid receptor (Rattus norvegicus) (P33535 whole entry): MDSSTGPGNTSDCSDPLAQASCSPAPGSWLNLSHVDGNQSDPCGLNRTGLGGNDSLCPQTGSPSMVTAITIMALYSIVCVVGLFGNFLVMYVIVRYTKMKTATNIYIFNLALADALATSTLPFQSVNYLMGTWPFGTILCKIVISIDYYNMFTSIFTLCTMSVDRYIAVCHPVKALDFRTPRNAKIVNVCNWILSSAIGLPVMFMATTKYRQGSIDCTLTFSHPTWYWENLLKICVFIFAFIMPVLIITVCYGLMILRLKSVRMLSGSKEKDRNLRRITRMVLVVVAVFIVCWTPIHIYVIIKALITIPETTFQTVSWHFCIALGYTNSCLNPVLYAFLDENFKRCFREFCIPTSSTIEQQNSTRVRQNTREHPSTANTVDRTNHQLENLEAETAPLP

Row | Compound | pEC50 [1] [nM] | Ke [2] [nM]
1 | CSCC[C@H](NC(=O)[C@H](Cc1ccccc1)NC(=O)CNC(=O)[C@@H](C)NC(=O)[C@@H](N)Cc1ccc(O)cc1)C(=O)N1CCC[C@H]1C(=O)N[C@@H](CC(C)C)C(=O)N[C@@H](Cc1c[nH]c2ccccc12)C(=O)NCc1cc(C(F)(F)F)cc(C(F)(F)F)c1 | 8.2 | 10
2 | CSCC[C@H](NC(=O)[C@H](Cc1ccccc1)NC(=O)CNC(=O)[C@@H](C)NC(=O)[C@@H](N)Cc1ccc(O)cc1)C(=O)N1CCC[C@H]1C(=O)N[C@@H](CC(C)C)C(=O)N[C@@H](Cc1c[nH]c2ccccc12)C(=O)NCc1ccccc1 | 7.7 | 9.9
3 | CSCC[C@H](NC(=O)[C@H](Cc1ccccc1)NC(=O)CNC(=O)[C@@H](C)NC(=O)[C@@H](N)Cc1ccc(O)cc1)C(=O)N1CCC[C@H]1C(=O)N[C@@H](CC(C)C)C(=O)N[C@@H](Cc1c[nH]c2ccccc12)C(=O)OCc1cc(C(F)(F)F)cc(C(F)(F)F)c1 | 7.5 | –

Reference: ChEMBL document CHEMBL1140170, “The importance of micelle-bound states for the bioactivities of bifunctional peptide derivatives for delta/mu opioid receptor agonists and neurokinin 1 receptor antagonists” (J Med Chem, 2008)
